IC50 data for one molecule are collected here from patent publication US5753710A, “Substituted benzyloxycarbonylguanidines, a process for their preparation, their use as a medicament or diagnostic, and a medicament containing them” (Hoechst Aktiengesellschaft, priority 1995, dated 1998).

Structures can show the parent of a compound that is named as a salt. A value given as a limit tells only on which side of the number the result lay.

The target of the assay is T1, Na^+ /H^+ exchanger of rabbit erythrocytes (Oryctolagus cuniculus, UniProt P23791).
T1 construct: endogenous in cells; host or cells: erythrocytes in blood of cholesterol-fed New Zealand White rabbits (Ivanovas)
T1 sequence (P23791 whole entry): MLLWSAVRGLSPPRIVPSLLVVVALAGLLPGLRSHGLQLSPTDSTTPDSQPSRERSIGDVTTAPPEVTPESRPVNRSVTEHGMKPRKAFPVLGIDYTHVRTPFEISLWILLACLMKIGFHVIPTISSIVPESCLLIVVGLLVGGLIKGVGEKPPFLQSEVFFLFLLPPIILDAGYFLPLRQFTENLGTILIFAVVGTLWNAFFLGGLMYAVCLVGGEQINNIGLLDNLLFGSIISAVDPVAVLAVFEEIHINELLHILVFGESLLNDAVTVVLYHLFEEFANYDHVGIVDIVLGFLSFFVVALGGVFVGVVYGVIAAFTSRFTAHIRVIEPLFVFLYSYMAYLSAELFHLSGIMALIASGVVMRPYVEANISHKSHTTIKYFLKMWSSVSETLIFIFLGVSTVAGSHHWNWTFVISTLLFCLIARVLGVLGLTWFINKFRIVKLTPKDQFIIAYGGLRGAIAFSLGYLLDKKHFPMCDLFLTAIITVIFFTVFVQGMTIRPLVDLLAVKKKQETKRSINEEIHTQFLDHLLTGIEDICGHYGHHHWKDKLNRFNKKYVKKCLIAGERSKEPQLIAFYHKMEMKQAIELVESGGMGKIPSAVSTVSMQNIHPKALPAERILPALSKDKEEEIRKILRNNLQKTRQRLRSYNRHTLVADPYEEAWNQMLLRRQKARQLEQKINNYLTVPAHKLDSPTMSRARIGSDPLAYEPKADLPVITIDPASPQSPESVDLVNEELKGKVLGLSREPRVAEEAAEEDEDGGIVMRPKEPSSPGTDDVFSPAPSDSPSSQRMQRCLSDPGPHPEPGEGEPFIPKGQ
As to the kind of experiment: Inhibition of the Na^+ /H^+ exchanger of rabbit erythrocytes (amiloride-sensitive Na^+ influx, flame photometry). It counts as cell-based, rabbit (New Zealand White). Conditions: erythrocytes of rabbits fed 2% cholesterol diet for six weeks; pH 7.4, 37° C.; hyperosmolar salt/sucrose medium. The text has this:
Inhibition of the Na^+ /H^+ exchanger of rabbit erythrocytes
New Zealand White rabbits (Ivanovas) received a standard diet containing 2% cholesterol for six weeks in order to activate the Na^+ /H^+ exchange and thus to be able to determine, by flame photometry, the Na^+ influx into the erythrocytes via Na^+ /H^+ exchange. The blood was removed from the aural arteries and rendered incoagulable using 25 IU of potassium heparin. A part of each sample was used for the duplicate determination of the hematocrit by means of centrifugation. Aliquots of in each case 100 μl were used for measuring the initial Na^+ content of the erythrocytes.
In order to determine the amiloride-sensitive sodium influx, 100 μl of each blood sample were in each case incubated, at pH 7.4 and 37° C., in 5 ml of a hyperosmolar salt/sucrose medium (mmol/l: 140 NaCl, 3 KCl, 150 sucrose, 0.1 ouabain, 20 tris(hydroxymethyl)aminomethane). […] The intracellular sodium content was determined by flame photometry.
The net influx of Na^+ was calculated from the difference between the initial sodium values and the sodium content of the erythrocytes following incubation. The amiloride-inhibitable sodium influx was calculated from the difference in the sodium content of the erythrocytes following incubation with and without amiloride 3×10^-4 mol/l. […]

In general, IC50 refers to the concentration at which inhibition is half-maximal. As for `NC(N)=NC(=O)OCc1ccc(Oc2cccnc2)c(C(F)(F)F)c1` [Example 1, 4-(3-Pyridyloxy)-3-trifluoromethyl-benzyloxycarbonylguanidine, dihydrochloride], the IC50 is less than 1000 nM.
